Broadly, the melting point is the temperature of the solid-liquid transition. As usually defined, the pEC50 is the EC50 on a negative log10 scale, so that one unit is a factor of ten.

From patent US20080096848A1, “Substituted N-Aryl-9-Oxo-9H-Fluorene-1-Carboxamides and Analogs as Activators of Caspases and Inducers of Apoptosis” (CYTOVIA INC., priority 2004, published 2008) come the findings set out here.

pEC50: −log10 of the molar value.

Series [1] relates to T-47D. Kind of series: Caspase cascade activation assay (Ac-DEVD-R110 fluorogenic substrate) in T-47D cells. Format: cell-based, Human. Conditions: 24 h incubation; for Caspase activity (Ratio): ratio of net RFU (T=3 h) of test compound to control, 0.16 to 10 μM final; for pEC50: Homo sapiens, T47D, 24 h, sigmoidal dose-response, read-out: Caspase potency EC50. The procedure:
Human breast cancer cell lines T-47D was grown according to media component mixtures designated by American Type Culture Collection+10% FCS (Invitrogen Corporation), in a 5% CO2-95% humidity incubator at 37° C. T-47D and ZR-75-1 cells were maintained at a cell density between 30 and 80% confluency and for HL-60 at a cell density of 0.1 to 0.6×10^6 cells/mL. Cells were harvested at 600×g and resuspended at 0.65×10^6 cells/mL into appropriate media+10% FCS. An aliquot of 45 μL of cells was added to a well of a 96-well microtiter plate containing 5 μL of a 10% DMSO in RPMI-1640 media solution containing 1.6 to 100 μM of N-(2-methylphenyl)-9-oxo-9H-fluorene-1-carboxamide or other test compound (0.16 to 10 μM final). An aliquot of 45 μL of cells was added to a well of a 96-well microtiter plate containing 5 μL of a 10% DMSO in RPMI-1640 media solution without test compound as the control sample. The samples were mixed by agitation and then incubated at 37° C. for 24 h in a 5% CO2-95% humidity incubator. After incubation, the samples were removed from the incubator and 50 μL of a solution containing 20 μM of N—(Ac-DEVD)-N′-ethoxycarbonyl-R110 fluorogenic substrate (SEQ ID NO:1) (Cytovia, Inc.; U.S. Pat. No. 6,335,429), 20% sucrose (Sigma), 20 mM DTT (Sigma), 200 mM NaCl (Sigma), 40 mM Na PIPES buffer pH 7.2 (Sigma), and 500 μg/mL lysolecithin (Calbiochem) was added. The samples were mixed by agitation and incubated at room temperature. Using a fluorescent plate reader (Model 1420 Wallac Instruments), an initial reading (T=0) was made about 1-2 min after addition of the substrate solution, employing excitation at 485 nm and emission at 530 nm, to determine the background fluorescence of the control sample. After about 3 h of incubation, the samples were read for fluorescence as above (T=3 h).
The Relative Fluorescence Unit values (RFU) were used to calculate the sample readings as follows: RFU(T=3h)−Control RFU(T=0)=Net RFU(T=3h)
The activity of caspase cascade activation was determined by the ratio of the net RFU value for N-(2-methylphenyl)-9-oxo-9H-fluorene-1-carboxamide and other test compounds to that of control samples. The EC50 (nM) was determined by a sigmoidal dose-response calculation (Prism 2.0, GraphPad Software Inc.).

The test system of series [2] is T-47D. The series can be described thus: Inhibition of cell proliferation (GI50), CellTiter 96 AQueous One, T-47D cells. The series is classed as cell-based. Conditions: Homo sapiens, T47D, 48 h incubation, read-out: GI50 (dose for 50% inhibition of cell proliferation). On the procedure:
(§1) T-47D and MX1 cells were grown and harvested as in Example 39. An aliquot of 90 μL of cells (2.2×10^4 cells/mL) was added to a well of a 96-well microtiter plate containing 10 μl of a 10% DMSO in RPMI-1640 media solution containing 1 nM to 100 μM of N-(2-methylphenyl)-9-oxo-9H-fluorene-1-carboxamide (0.1 nM to 10 μM final) or other test compound. An aliquot of 90 μL of cells was added to a well of a 96-well microtiter plate containing 10 μL of a 10% DMSO in RPMI-1640 media solution without compound as the control sample for maximal cell proliferation (AMax). The samples were mixed by agitation and then incubated at 37° C. for 48 h in a 5% CO2-95% humidity incubator. After incubation, the samples were removed from the incubator and 20 μL of CellTiter 96 AQUEOUS One Solution Cell Proliferation™ reagent (Promega) was added. The samples were mixed by agitation and incubated at 37° C. for 2-4 h in a 5% CO2-95% humidity incubator. Using an absorbance plate reader (Model 1420 Wallac Instruments), an initial reading (T=0) was made about 1-2 min after addition of the solution, employing absorbance at 490 nm. This determines the possible background absorbance of the test compounds. No absorbance for N-(2-methylphenyl)-9-oxo-9H-fluorene-1-carboxamide was found at 490 nm. After the 2-4 h incubation, the samples were read for absorbance as above (ATest).
(§2) Baseline for GI50 (dose for 50% inhibition of cell proliferation) of initial cell numbers were determined by adding an aliquot of 90 μL of cells or 90 μL of media, respectively, to wells of a 96-well microtiter plate containing 10 μL of a 10% DMSO in RPMI-1640 media solution. The samples were mixed by agitation and then incubated at 37° C. for 0.5 h in a 5% CO2-95% humidity incubator. After incubation, the samples were removed from the incubator and 20 μL of CellTiter 96 AQUEOUS One Solution Cell Proliferation™ reagent (Promega) was added. The samples were mixed by agitation and incubated at 37° C. for 2-4 h in a 5% CO2-95% humidity incubator. Absorbance was read as above, (AStart) defining absorbance for initial cell number used as baseline in GI50 determinations.
(§3) GI50 (dose for 50% inhibition of cell proliferation) is the concentration where [(ATest−Astart)/(AMax−Astart)]=0.5.

The subject of series [3] is MX1. Kind of series: Inhibition of cell proliferation (GI50), CellTiter 96 AQueous One, MX1 cells. Format: cell-based. Conditions: Homo sapiens, 48 h incubation, read-out: GI50 (dose for 50% inhibition of cell proliferation). The procedure:
as §1, §2, §3

Regarding `O=C(Nc1ccccc1-n1cccn1)c1cccc2c1Cc1ccccc1-2` [Example 12, N-(2-(1H-Pyrazol-1-yl)-phenyl)-9H-fluorene-1-carboxamide], the melting point lay within 179 to 180 °C. Moreover, in series [1], the “Caspase activity (Ratio)” value is given as 8.9 and the pEC50 is 5.80.
Take `CN(C)c1ccccc1NC(=O)c1cccc2c1C(=O)c1ccccc1-2` [Example 10, N-(2-Dimethylaminophenyl)-9-oxo-9H-fluorene-1-carboxamide]: the melting point was in the range of 152 to 153 °C. The GI50 in series [2] stood at 665 nM. Besides, the GI50 in series [3] turned out to be 736 nM. In series [1], the “Caspase activity (Ratio)” value came out at 8.0 and the negative logarithm of the EC50 (pEC50) is 5.81.
